Here are results for two compounds from patent publication US11919854B2, “P2RX7 modulators in therapy” (Centre national de la recherche scientifique, priority 2018, dated 2024).

This experiment deals with T1, mouse P2RX7 (mP2RX7) (Mus musculus, UniProt Q9Z1M0).
T1 construct: expressed in transfected cells; host or cells: HEK cells
T1 sequence (Q9Z1M0 1-595): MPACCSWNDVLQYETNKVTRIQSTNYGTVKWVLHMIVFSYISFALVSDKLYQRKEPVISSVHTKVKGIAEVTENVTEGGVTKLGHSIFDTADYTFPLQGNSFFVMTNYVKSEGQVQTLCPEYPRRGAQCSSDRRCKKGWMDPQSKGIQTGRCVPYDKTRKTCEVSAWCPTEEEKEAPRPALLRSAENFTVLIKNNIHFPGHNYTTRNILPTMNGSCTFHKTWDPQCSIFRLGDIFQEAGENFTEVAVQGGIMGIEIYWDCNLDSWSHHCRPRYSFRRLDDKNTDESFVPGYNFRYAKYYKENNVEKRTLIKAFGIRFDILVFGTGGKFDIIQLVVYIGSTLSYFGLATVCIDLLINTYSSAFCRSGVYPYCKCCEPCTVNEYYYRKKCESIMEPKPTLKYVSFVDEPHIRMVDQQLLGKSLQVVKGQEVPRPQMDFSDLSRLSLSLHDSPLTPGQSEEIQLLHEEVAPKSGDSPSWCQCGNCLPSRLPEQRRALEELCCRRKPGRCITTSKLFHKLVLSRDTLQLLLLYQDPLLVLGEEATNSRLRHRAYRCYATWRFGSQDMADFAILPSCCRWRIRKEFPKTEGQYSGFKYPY
Kind of experiment: Channel activity (Fluo4-AM) and large pore opening (Topro3) by flow cytometry, HEK cells expressing mP2RX7, 1 h BzATP. The experiment is classed as cell-based. On the procedure:
Calcium channel activity (Fluo4AM probe) and large pore opening (Topro3 probe) were analysed by FACS on mP2RX7 HEK cells. Cells were non stimulated (NS) or treated with BzATP (500 μM) alone or in the presence of HEI2314, HEI2328, HEI2333 or HEI2336 (used at 50 μM).
Calcium channel activity (Fluo4AM probe) and large pore opening (Topro3 probe) were analysed by FACS on mock and mP2RX7 HEK cells. Cells were non stimulated (NS) or treated with BzATP (500 μM) alone or in the presence of HEI2328 used at 50 μM.
2.1. […] Cation channel activity is assayed with the Fluo4 AM (Invitrogen) probe and opening of large pore with Topro3 (Invitrogen). In each experiment 2×10^6 cells were incubated with 50 nM Fluo4-AM for 30 minutes. After washing, cells were treated with 500 μM BzATP (3′-O-(4-benzoyl)benzoyl ATP) for 1 h, or non-treated, in presence of the compounds of the invention at 50 μM. When indicated, the Topro3 probe (8.5 nM) was added during the 1 h stimulation time. Fluorescence was assayed by flow cytometry.

Setting [1] is: cells expressing mP2RX7, BzATP 500 μM.

The compound `Nc1ncnc2c1ncn2[C@@H]1O[C@H](COP(=O)(O)OP(=O)(O)OP(=O)(O)O)[C@@H](OC(=O)c2ccc(C(=O)c3ccccc3)cc2)[C@H]1O` [BzATP, 3′-O-(4-benzoyl)benzoyl ATP, reference compound] showed a Topro3 positive cells (BzATP 500 μM only, 1 h, mP2RX7 cells) of 24.7%. The “activity in Mock cells” value (Mock HEK cells (no P2X receptors)) was “inactive”. In addition, under setting [1], the “increase of Ca2+ entry” value is 15 fold and the “increase of large pore opening” value came out at 4 fold.
Consider `O=C(NCc1ccc(Cl)cc1Cl)[C@@H]1CCC(=O)N1C(=O)Nc1ccccc1Cl` [HEI2314, (S)—N^1-(2-Chlorophenyl)-N^2-(2,4-dichlorobenzyl)-5-oxopyrrolidine-1,2-dicarboxamide], for which the “Topro3 entry (large pore opening)” value (compound 50 μM, BzATP 500 μM, 1 h, mP2RX7 HEK cells) is “increase Topro3 entry only in presence of BzATP”.
